Assay results as given in patent publication US12703686B2, “4-Methoxy-2-phenethyl isoindoline-1-one derivative and composition for treating neurological diseases, comprising same” (CNG BIO CO., LTD., priority 2020, dated 2026).

Experiments:
BV2 cells (microglia) = assay: NO production in LPS-stimulated BV2 cells (Griess reaction), antineuritic activity; type: cell-based; settings: 10 NM, 100 ng/ml LPS for 24 hours, FIG. 13
Experimental: In order to confirm the change in NO production and the effect on cell viability when BV2 cells were treated with the compounds of the present invention, the following experiments were performed. L-NMMA (NG-monomethyl-L-arginine), an NO synthesis inhibitor, was used as a positive control group.
Analysis of NO production for evaluation of antineuritic activity BV2 cells (microglia) were dispensed in DMEM culture solution at a concentration of 6×10^4 cells/well in a 96 well plate, and then treated with the compounds of Formulas 6, 7, and 8 at a concentration of 10 NM, and incubated for 24 hours. After 24 hours, each sample was treated with a concentration of 10 NM, reacted for 1 hour, and then stimulated with 100 ng/ml of LPS for 24 hours. The production of nitrite, a soluble oxidation product of NO (nitric oxide), was measured in the culture medium through the Griess reaction.

C6 glioma cells = assay: Ability to promote increase of nerve growth factor (NGF) in C6 glioma cells, ELISA; type: cell-based, Rat; settings: 10 μM, 24 hours, FIG. 9
Experimental: In order to measure the amount of nerve growth factor (NGF) produced in the cell medium and to confirm the effect on cell viability when cells were treated with the compounds of the present invention, the following experiments were performed.
Rat astrocyte-derived C6 glioma cells were dispensed in DMEM culture solution at a concentration of 1×10^5 cells/well in a 24 well plate and stabilized overnight, and then treated with the compounds of Formulas 3, 6, 7, and 8 at a concentration of 10 μM, and reacted in a 37° C. incubator for 24 hours. The treated medium was collected and centrifuged, and then absorbance was measured using an enzyme linked immunoassay kit (ELISA kit).

| SMILES | NO production (nitrite) compared to untreated control group (BV2 cells (microglia)) | nerve growth factor produced in the cell medium (C6 glioma cells) |
| --- | --- | --- |
| COc1cc(O)c(CCCO)c2c1CN(CCc1ccccc1)C2=O [Formula 8, 6-hydroxy-7-(3-hydroxypropyl)-4-methoxy-2-phenethyl isoindolin-1-one] | reduced | – |
| COc1cc(O)c(CCN(C)C)c2c1CN(CCc1ccccc1)C2=O [Formula 7, 7-(2-(dimethylamino)ethyl)-6-hydroxy-4-methoxy-2-phenethyl isoindolin-1-one] | reduced | significantly excellent |
| COc1cc(O)c(CCO)c2c1CN(CCc1ccccc1)C2=O [Formula 6, 6-hydroxy-7-(2-hydroxyethyl)-4-methoxy-2-phenethyl isoindolin-1-one] | reduced | – |
| C=CCc1c(O)cc(OC)c2c1C(=O)N(CCc1ccccc1)C2 [Formula 3, 7-allyl-6-hydroxy-4-methoxy-2-phenethyl isoindolin-1-one] | – | significantly excellent |
